The values that follow come from patent US20120083471A1, “Novel Compounds, Pharmaceutical Compositions Containing Same, Methods of Use for Same, and Methods for Preparing Same” (priority 2008, published 2012).

pIC50: −log10 of the molar value.

The subject of assay [1] is hypothalamic neuropeptide expression. Nature of the assay: Real-time RT-PCR of hypothalamic neuropeptides in DIO mice. It is filed as in vivo, mouse. The protocol: For acute studies, 6 DIO or lean mice were treated with a single dose of FSG67 (20 mg/kg, i.p.) approximately 3 hrs past lights-on. Animal weights and food consumption were measured 18 h after treatment. Following euthanization, the hypothalmuses were harvested to measure orexigenic and anorexigenic neuropeptide gene expression. In the chronic studies, DIO mice, 4-10 animals per group, were treated daily with FSG67 (5 mg/kg, i.p.) or with RMPI vehicle for the days indicated. Body weight and food intake were measured daily. In one study, a cohort of mice was pair-fed with amounts consumed by the FSG67-treated animals and mice were monitored with indirect calorimetry (Oxymax Equal Flow System®, Columbus Instruments, Columbus, Ohio). Measurements of VO2 (ml/kg/hr) and VCO2 (ml/kg/hr) were performed and recorded every 15 min. The respiratory exchange ratio (RER) was calculated by Oxymax software, version 5.9, and is defined as ratio of VCO2 to VO2 33. After completion of the treatment course, animals were euthanized by CO2 inhalation 4 hrs following the final dose of FSG67. Tissues were harvested immediately for RNA extraction; serum was collected and analyzed for glucose, cholesterol, and triglyceride measurements (Bioanalytics, Gaithersburg, Md.). Fresh liver tissue was snap frozen in liquid N2, sectioned, and stained with hematoxylin and Oil Red O to visualize triglyceride droplets.
Real-time RT-PCR. Hypothalamus, liver, and WAT of DIO and lean mice were harvested and immediately frozen in liquid nitrogen. Total RNA was isolated and real-time quantitative RT-PCR was performed as previously described (13). Gene-specific primer pairs were designed using Primer3 software (http://www-genome.wi.mit.edu/cgi-bin/primer/primer3_www.cgi/). […]
Acute and chronic FSG67 treatment altered hypothalamic neuropeptide expression. Hypothalamic peptide expression was measured in the lean and DIO mice treated with a single dose of FSG67 (see FIG. 11) and in the chronically treated DIO mice (see FIG. 12) to further asses the mechanism responsible for reduced food intake. […]
A general note: Quantitative PCR measures a nucleic acid by following its amplification.

A further assay addresses T1, mouse mitochondrial GPAT (Mus musculus, UniProt Q61586).
T1 sequence (Q61586 1-827): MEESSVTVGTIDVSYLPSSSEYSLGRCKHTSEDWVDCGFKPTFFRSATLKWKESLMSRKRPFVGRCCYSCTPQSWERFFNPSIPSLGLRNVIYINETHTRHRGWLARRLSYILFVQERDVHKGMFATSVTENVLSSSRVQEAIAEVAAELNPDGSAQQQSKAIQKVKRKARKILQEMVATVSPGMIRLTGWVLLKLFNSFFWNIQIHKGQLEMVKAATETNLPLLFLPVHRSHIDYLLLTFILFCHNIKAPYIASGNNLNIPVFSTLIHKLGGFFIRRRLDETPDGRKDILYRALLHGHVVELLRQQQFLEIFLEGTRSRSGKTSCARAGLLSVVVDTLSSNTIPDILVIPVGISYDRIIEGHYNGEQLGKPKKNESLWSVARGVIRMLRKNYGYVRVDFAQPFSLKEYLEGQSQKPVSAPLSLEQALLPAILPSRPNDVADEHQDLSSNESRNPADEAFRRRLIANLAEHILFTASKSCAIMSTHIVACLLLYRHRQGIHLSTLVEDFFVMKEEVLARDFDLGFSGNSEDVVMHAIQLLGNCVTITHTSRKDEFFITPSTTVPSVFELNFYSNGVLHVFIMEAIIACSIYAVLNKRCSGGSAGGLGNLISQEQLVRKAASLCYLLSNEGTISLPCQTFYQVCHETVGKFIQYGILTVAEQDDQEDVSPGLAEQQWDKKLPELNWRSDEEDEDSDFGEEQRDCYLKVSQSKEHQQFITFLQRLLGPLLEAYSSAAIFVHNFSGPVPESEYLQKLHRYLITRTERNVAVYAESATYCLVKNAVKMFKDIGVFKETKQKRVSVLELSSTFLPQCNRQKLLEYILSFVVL
Conditions: reference 12; read-out: reported IC50 for mouse mitochondrial GPAT activity; cited from earlier work.

As usually defined, the pIC50 is −log10 of the IC50, conventionally taken in molar units. As to `CCCCCCCCCS(=O)(=O)Nc1ccccc1C(=O)O` [Compound 15g, 2-(Nonylsulfonamido)benzoic acid], the “hypothalamic AGRP, POMC and CART expression” value in assay [1] (16 d treated) was “unaffected”. Moreover, the “hypothalamic NPY expression” value in assay [1] (16 d treated, vs vehicle controls, listed as FSG67) is listed as “significant reduction”. Besides, in assay [1] (single dose, vs vehicle controls and food-deprived (data not shown)), the “hypothalamic AGRP expression” value is listed as “significantly increased”. The pIC50 on mouse mitochondrial GPAT was 4.61.
